# Experimental data taken from PubChem BioAssay (NCI).
#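 48-hour exposure; five concentrations; linearly interpolated endpoints. The concentration for 50% growth inhibition is given as GI50. Definition used: TGI = concentration required for complete inhibition of growth.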
# Tests used:
# Assay in all cases: NCI anticancer screen, dose series, 48 h
# [1] = system: HOP-62 NSCLC
# [2] = system: SK-OV-3 ovarian
# [3] = system: HT29 colon
# [4] = system: TK-10 renal
# [5] = system: SF-295 CNS
# [6] = system: SK-MEL-28 melanoma
# [7] = system: EKVX NSCLC
# [8] = system: OVCAR-3 ovarian
# [9] = system: SF-268 CNS
# [10] = system: PC-3 prostate
# [11] = system: UACC-62 melanoma
# [12] = system: HCT-15 colon
# [13] = system: MALME-3M melanoma
# [14] = system: SK-MEL-2 melanoma
# [15] = system: HCT-116 colon
# [16] = system: RXF 393 renal
# [17] = system: MCF7 breast
# [18] = system: OVCAR-8 ovarian
# [19] = system: K-562 leukemia
# [20] = system: T-47D breast
# [21] = system: M14 melanoma
# [22] = system: MOLT-4 leukemia
# [23] = system: MDA-MB-231 breast
# [24] = system: SW-620 colon
# [25] = system: SN12C renal
# [26] = system: A549 NSCLC
# [27] = system: NCI/ADR-RES ovarian
# [28] = system: UO-31 renal
# [29] = system: U251 CNS
# [30] = system: SNB-75 CNS
# [31] = system: ACHN renal
# [32] = system: CAKI-1 renal
# [33] = system: HCC-2998 colon
# [34] = system: IGROV1 ovarian
# [35] = system: NCI-H460 lung
# [36] = system: DU-145 prostate
# [37] = system: OVCAR-5 ovarian
# [38] = system: COLO 205 colon
# [39] = system: HS 578T breast
# [40] = system: SK-MEL-5 melanoma
# [41] = system: RPMI-8226 leukemia
# [42] = system: SF-539 CNS
# [43] = system: A498 renal
# [44] = system: SR leukemia
# [45] = system: SNB-19 CNS
# [46] = system: KM12 colon
# [47] = system: MDA-MB-435
# [48] = system: CCRF-CEM leukemia
# [49] = system: 786-0 renal
# [50] = system: HL-60(TB) leukemia
# [51] = system: NCI-H522 lung
# [52] = system: NCI-H226 lung
# [53] = system: LOX IMVI melanoma
# [54] = system: UACC-257 melanoma
# [55] = system: BT-549 breast
# [56] = system: NCI-H23 lung
# [57] = system: OVCAR-4 ovarian
# [58] = system: HOP-92 NSCLC
structure (smiles),measurement,setting,value
Oc1ccccc1N=Cc1c(O)ccc2ccccc12,GI50,[1],17.5 µM
same,TGI,[1],97.6 µM
same,GI50,[2],15.9 µM
same,TGI,[2],54.7 µM
same,GI50,[3],16.4 µM
same,TGI,[3],40.1 µM
same,GI50,[4],14.2 µM
same,TGI,[4],66.2 µM
same,GI50,[5],11.7 µM
same,TGI,[5],40.4 µM
same,GI50,[6],22.4 µM
same,TGI,[6],84.5 µM
same,GI50,[7],15.8 µM
same,TGI,[7],57.8 µM
same,GI50,[8],11.9 µM
same,TGI,[8],46.1 µM
same,GI50,[9],15.8 µM
same,TGI,[9],76.8 µM
same,GI50,[10],7.28 µM
same,TGI,[10],66.2 µM
same,GI50,[11],9.78 µM
same,TGI,[11],38.5 µM
same,GI50,[12],15.3 µM
same,TGI,[12],> 100 µM
same,GI50,[13],5 µM
same,TGI,[13],27 µM
same,GI50,[14],13.3 µM
same,TGI,[14],40.5 µM
same,GI50,[15],13 µM
same,TGI,[15],46 µM
same,GI50,[16],10.6 µM
same,TGI,[16],34.6 µM
same,GI50,[17],8.35 µM
same,TGI,[17],52.3 µM
same,GI50,[18],18.1 µM
same,TGI,[18],72 µM
same,GI50,[19],15.3 µM
same,TGI,[19],> 100 µM
same,GI50,[20],7.5 µM
same,TGI,[20],54.9 µM
same,GI50,[21],13.4 µM
same,TGI,[21],40.2 µM
same,GI50,[22],10.2 µM
same,TGI,[22],80.3 µM
same,GI50,[23],5.75 µM
same,TGI,[23],27.5 µM
same,GI50,[24],17.3 µM
same,TGI,[24],> 100 µM
same,GI50,[25],15.4 µM
same,TGI,[25],71.9 µM
same,GI50,[26],24.6 µM
same,TGI,[26],91.9 µM
same,GI50,[27],5.58 µM
same,TGI,[27],40.8 µM
same,GI50,[28],3.59 µM
same,TGI,[28],28.3 µM
same,GI50,[29],19.8 µM
same,TGI,[29],67.9 µM
same,GI50,[30],10.4 µM
same,TGI,[30],62.5 µM
same,GI50,[31],4.96 µM
same,TGI,[31],42.6 µM
same,GI50,[32],5.61 µM
same,TGI,[32],26.6 µM
same,GI50,[33],16.5 µM
same,TGI,[33],72.4 µM
same,GI50,[34],4.84 µM
same,TGI,[34],26.1 µM
same,GI50,[35],10.7 µM
same,TGI,[35],47 µM
same,GI50,[36],19.5 µM
same,TGI,[36],> 100 µM
same,GI50,[37],24.6 µM
same,TGI,[37],62.9 µM
same,GI50,[38],30.7 µM
same,TGI,[38],> 100 µM
same,GI50,[39],15 µM
same,TGI,[39],> 100 µM
same,GI50,[40],9.99 µM
same,TGI,[40],34.7 µM
same,GI50,[41],2.77 µM
same,TGI,[41],37 µM
same,GI50,[42],14.2 µM
same,TGI,[42],39 µM
same,GI50,[43],5.61 µM
same,TGI,[43],23.6 µM
same,GI50,[44],15.3 µM
same,TGI,[44],47.7 µM
same,GI50,[45],21.8 µM
same,TGI,[45],> 100 µM
same,GI50,[46],16.5 µM
same,TGI,[46],> 100 µM
same,GI50,[47],17 µM
same,TGI,[47],52.6 µM
same,GI50,[48],3.2 µM
same,TGI,[48],47.1 µM
same,GI50,[49],19.5 µM
same,TGI,[49],68.3 µM
same,GI50,[50],4.95 µM
same,TGI,[50],33.3 µM
same,GI50,[51],6.73 µM
same,TGI,[51],39.3 µM
same,GI50,[52],11.5 µM
same,TGI,[52],61.7 µM
same,GI50,[53],10.6 µM
same,TGI,[53],45 µM
same,GI50,[54],15.2 µM
same,TGI,[54],56.6 µM
same,GI50,[55],5.88 µM
same,TGI,[55],30 µM
same,GI50,[56],13.8 µM
same,TGI,[56],49.8 µM
same,GI50,[57],13.4 µM
same,TGI,[57],75.4 µM
same,GI50,[58],3.17 µM
same,TGI,[58],18.5 µM
C/C=C(\C)C(=O)O[C@H]1C=CC(=O)O[C@H]1CC[C@H](O)[C@H](C)O,GI50,[1],15.3 µM
same,TGI,[1],29.7 µM
same,GI50,[2],16.2 µM
same,TGI,[2],31 µM
same,GI50,[3],2.38 µM
same,TGI,[3],6.65 µM
same,GI50,[4],9.78 µM
same,TGI,[4],23.9 µM
same,GI50,[5],13 µM
same,TGI,[5],26.5 µM
same,GI50,[6],2.85 µM
same,TGI,[6],8.05 µM
same,GI50,[7],15.8 µM
same,TGI,[7],30.5 µM
same,GI50,[8],3.06 µM
same,TGI,[8],8.79 µM
same,GI50,[9],2.83 µM
same,TGI,[9],12.3 µM
same,GI50,[10],8.46 µM
same,TGI,[10],22.7 µM
same,GI50,[11],6.42 µM
same,TGI,[11],17.3 µM
same,GI50,[12],3.41 µM
same,TGI,[12],12.7 µM
same,GI50,[13],4.62 µM
same,TGI,[13],16.1 µM
same,GI50,[14],8.41 µM
same,TGI,[14],27.9 µM
same,GI50,[15],1.38 µM
same,TGI,[15],2.82 µM
same,GI50,[16],2 µM
same,TGI,[16],5.4 µM
same,GI50,[17],2.45 µM
same,TGI,[17],11.3 µM
same,GI50,[18],12.8 µM
same,TGI,[18],30.7 µM
same,GI50,[19],2.3 µM
same,TGI,[19],8.72 µM
same,GI50,[20],2.34 µM
same,TGI,[20],10.8 µM
same,GI50,[21],6.82 µM
same,TGI,[21],21.9 µM
same,GI50,[22],0.522 µM
same,TGI,[22],5.59 µM
same,GI50,[23],12.8 µM
same,TGI,[23],28.3 µM
same,GI50,[24],2.64 µM
same,TGI,[24],6.08 µM
same,GI50,[25],8.06 µM
same,TGI,[25],25.3 µM
same,GI50,[26],18 µM
same,TGI,[26],36.3 µM
same,GI50,[27],15.3 µM
same,TGI,[27],34 µM
same,GI50,[28],9.06 µM
same,TGI,[28],23.5 µM
same,GI50,[29],4.64 µM
same,TGI,[29],17.4 µM
same,GI50,[30],8.98 µM
same,TGI,[30],22.7 µM
same,GI50,[31],6.42 µM
same,TGI,[31],19.7 µM
same,GI50,[32],7.12 µM
same,TGI,[32],13.1 µM
same,GI50,[33],12.3 µM
same,TGI,[33],26.3 µM
same,GI50,[34],4.17 µM
same,TGI,[34],19 µM
same,GI50,[35],11.6 µM
same,TGI,[35],25.4 µM
same,GI50,[36],13.8 µM
same,TGI,[36],27 µM
same,GI50,[37],16.9 µM
same,TGI,[37],32.1 µM
same,GI50,[38],3.22 µM
same,TGI,[38],10.1 µM
same,GI50,[39],6.8 µM
same,TGI,[39],18.1 µM
same,GI50,[40],5.13 µM
same,TGI,[40],11 µM
same,GI50,[41],2.22 µM
same,TGI,[41],7.54 µM
same,GI50,[42],13.3 µM
same,TGI,[42],27.1 µM
same,GI50,[43],16.4 µM
same,TGI,[43],30.3 µM
same,GI50,[44],15.1 µM
same,TGI,[44],45.7 µM
same,GI50,[45],12.3 µM
same,TGI,[45],26.4 µM
same,GI50,[46],12.4 µM
same,TGI,[46],29.1 µM
same,GI50,[47],3.43 µM
same,TGI,[47],12.7 µM
same,TGI,[48],0.335 µM
same,GI50,[49],5.46 µM
same,TGI,[49],12.8 µM
same,GI50,[50],0.469 µM
same,TGI,[50],4.77 µM
same,GI50,[51],2.05 µM
same,TGI,[51],6.13 µM
same,GI50,[52],4.14 µM
same,TGI,[52],16.6 µM
same,GI50,[53],2.24 µM
same,TGI,[53],5.66 µM
same,GI50,[54],16.4 µM
same,TGI,[54],34.2 µM
same,GI50,[55],6.14 µM
same,TGI,[55],19.9 µM
same,GI50,[56],15.7 µM
same,TGI,[56],34.2 µM
same,GI50,[57],6.42 µM
same,TGI,[57],20.7 µM
same,GI50,[58],6.3 µM
same,TGI,[58],16.1 µM
